According to patent publication US20250367305A1, “ALBUMIN NANOCOMPOSITE COMPRISING PHYTOCHEMICAL AND COMPOSITION FOR IMPROVING MUSCLE DISEASE CONTAINING SAME” (SEOUL NATIONAL UNIVERSITY R&DB FOUNDATION, priority 2023, published 2025):

Legend:
[1] = tested on: Mouse muscle cells (C2C12); experiment: Muscle cell atrophy induced by cisplatin: myotube differentiation by immunofluorescence; assay type: cell-based; conditions: 40 μM cisplatin, 2.5 and 5 μM, 48 hours
[2] = tested on: RAW cells polarized from M0 to M1; experiment: M1-type macrophage inhibition: cell morphology and intracellular/extracellular ROS levels; assay type: cell-based
[3] = tested on: MHC, IGF-IR, p-AKT, p-Foxo3a, MuRF1 in C2C12; experiment: Western blot of muscle generation and degradation proteins in CCM-treated cells; assay type: cell-based, mouse
Excerpt: Meanwhile, to evaluate the effect of the apigenin-glycated albumin composite on the expression of genes related to muscle generation and degradation, proteins were extracted from the cells of each experimental group and analyzed via western blotting.

[4] = tested on: MHC, MyoG (myogenin) in C2C12; experiment: Western blot of MHC and MyoG in cisplatin-treated cells; assay type: cell-based, mouse; conditions: reduced by cisplatin treatment
Procedure: Additionally, proteins were extracted from each experimental cell group, and western blot analysis was conducted to examine the expression level of MyoG (myogenin), which induces muscle generation.

[5] = tested on: Mouse muscle cells (C2C12); experiment: Cytotoxicity by DAPI nuclei count; assay type: cell-based; conditions: apigenin 2.5 and 5 μM, 96 hours
Procedure: After 96 hours of incubation, cell nuclei were stained with DAPI.

[6] = tested on: Mouse muscle cells (C2C12); experiment: Muscle atrophy induced by cancer cell-conditioned medium (CCM, CT26): myotube differentiation by immunofluorescence; assay type: cell-based; conditions: CCM-induced atrophied cells, 2.5 μM, 48 hours
Procedure: First, mouse muscle cells (C2C12) were cultured, and the culture medium was replaced with cancer cell-conditioned medium (CCM) from cultured CT26 (colon carcinoma) cells to induce muscle atrophy.
(§1) Mouse muscle cells (C2C12) were first cultured, and then their medium was replaced with cancer cell-conditioned medium (CCM) from cultured mouse colon carcinoma cells (CT26) to induce muscle atrophy. The cells were treated with either 2.5 μM of ursolic acid alone or ursolic acid-glycated albumin and incubated for 48 hours. Thereafter, fluorescence expression was confirmed to evaluate the level of myotube differentiation.
as §1, with “and” for “and then”, “soyasapogenol B” for “ursolic acid”, “soyasapogenol B-glycated” for “ursolic acid-glycated”
as §1, with “and” for “and then”, “citrusinol” for “ursolic acid”, “citrusinol-glycated” for “ursolic acid-glycated”

## O=c1cc(-c2ccc(O)cc2)oc2cc(O)cc(O)c12 [apigenin]
[1]
  atrophy caused by cisplatin: inhibited
[2]; RAW cells polarized from M0 to M1, FIG. 7a
  RAW cell morphology: maintained in the M0 type
[2]; RAW cells polarized from M0 to M1, FIG. 7b
  ROS levels (intracellular/extracellular): ROS reduction was observed
[3]; CCM treatment
  expression of IGF-IR: increased expression
  expression of MHC: increased expression
  expression of p-AKT: increased expression
  expression of p-Foxo3a: increased expression
[3]; elevated by CCM treatment
  MuRF1 expression: reduced
[4]
  MHC expression: increased
  MyoG expression: increased
[5]
  cytotoxicity (number of DAPI-stained nuclei): neither the apigenin alone nor the apigenin-glycated albumin composite exhibited cytotoxicity

## CC1(C)C=Cc2c(cc(O)c3c(=O)c(O)c(-c4ccc(O)cc4)oc23)O1 [citrusinol]
[6]
  MHC expression (immunofluorescence): increased

## CC1(C)C[C@@H](O)[C@]2(C)CC[C@]3(C)C(=CC[C@@H]4[C@@]5(C)CC[C@H](O)[C@](C)(CO)[C@@H]5CC[C@]43C)[C@@H]2C1 [soyasapogenol B]
[6]
  MHC expression (immunofluorescence): increased

## C[C@H]1[C@H](C)CC[C@]2(C(=O)O)CC[C@]3(C)C(=CC[C@@H]4[C@@]5(C)CC[C@H](O)C(C)(C)[C@@H]5CC[C@]43C)[C@H]12 [ursolic acid]
[6]
  MHC expression (immunofluorescence): increased
